In brackets after ≈: the same amount, converted by molar mass. Like-named read-outs stand apart in the source and are kept apart here.
Tests used:
[1] = tested on: Cryptosporidium parvum (CP); experiment: Cell culture model of Cryptosporidium parvum infection in HCT-8 cells, real-time qRT-PCR; format: cell-based; conditions: Cryptosporidium parvum; for inhibition at 0.25 µM: HCT-8, @0.25 uM
In short: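 HCT-8 monolayers were infected with C. parvum Iowa oocysts (1.5×10^4/well) for 3 h, then compounds were added after medium exchange and cells were incubated 41 h more (44 h total, 37 °C). Parasite Cp18S rRNA was measured by one-step SYBR qRT-PCR of lysates, normalized to host Hs18S, and % inhibition at the stated µM was derived from a standard curve.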

S. cerevisiae = experiment: in vitro; conditions: Saccharomyces cerevisiae
human fibroblast = experiment: in vitro; conditions: human
in vitro = conditions: human
[2] = 44 h, CP in HCT-8 cells, 44 h infection, 50% reduction of parasite growth vs control, NA: not active, read-out: MIC50

NC(=O)Cc1ccc(Oc2nc3ccc(F)cc3s2)cc1F [NZ-484, 2-{2-fluoro-4-[(6-fluoro-1,3-benzothiazol-2-yl)oxy]phenyl}acetamide]
MIC50 [1, 2]: ~1000 nM (≈ 0.32 µg/mL) | concentrations at which not toxic, S. cerevisiae cytotoxicity testing (S. cerevisiae): ≥ 100 µM | concentrations at which not toxic, human fibroblast cytotoxicity testing (human fibroblast): ≥ 100 µM

NC(=O)Cc1ccc(Oc2nc3cc(F)c(F)cc3s2)cc1 [NZ-485, 2-{4-[(5,6-difluoro-1,3-benzothiazol-2-yl)oxy]phenyl}acetamide]
MIC50 [1, 2]: 1000 to 4000 nM (≈ 0.32 to 1.28 µg/mL) | concentrations at which not toxic, S. cerevisiae cytotoxicity testing (S. cerevisiae): ≥ 100 µM | concentrations at which not toxic, human fibroblast cytotoxicity testing (human fibroblast): ≥ 100 µM

CC(C(=O)N1CCNCC1)c1ccc(Oc2nc3cc(F)c(F)cc3s2)cc1 (stereo not drawn) [NZ-489, 2-{4-[(5,6-difluoro-1,3-benzothiazol-2-yl)oxy]phenyl}-1-(piperazin-1-yl)propan-1-one]
MIC50 [1, 2]: < 250 nM | inhibition at 0.25 µM [1]: 68% | concentrations at which not toxic, S. cerevisiae cytotoxicity testing (S. cerevisiae): ≥ 100 µM | concentrations at which not toxic, human fibroblast cytotoxicity testing (human fibroblast): ≥ 100 µM

O=C(Cc1ccc(Oc2nc3ccc(F)cc3s2)cc1)N1CCCC1 [NZ-490, 2-{4-[(6-fluoro-1,3-benzothiazol-2-yl)oxy]phenyl}-1-(pyrrolidin-1-yl)ethan-1-one]
MIC50 [1, 2]: ~250 nM (≈ 0.0891 µg/mL) | inhibition at 0.25 µM [1]: 60% | concentrations at which not toxic, S. cerevisiae cytotoxicity testing (S. cerevisiae): ≥ 100 µM | concentrations at which not toxic, human fibroblast cytotoxicity testing (human fibroblast): ≥ 100 µM

NC(=O)Cc1ccc(Oc2nc3cc(F)c(F)cc3s2)cc1F [NZ-496, 2-{4-[(5,6-difluoro-1,3-benzothiazol-2-yl)oxy]-2-fluorophenyl}acetamide]
MIC50 [1, 2]: 250 to 1000 nM (≈ 0.0846 to 0.338 µg/mL) | concentrations at which not toxic, S. cerevisiae cytotoxicity testing (S. cerevisiae): ≥ 100 µM | concentrations at which not toxic, human fibroblast cytotoxicity testing (human fibroblast): ≥ 100 µM

NC(=O)Cc1ccc(Oc2nc3ccc(Cl)cc3s2)cc1F [NZ-500, 2-{4-[(6-chloro-1,3-benzothiazol-2-yl)oxy]-2-fluorophenyl}acetamide]
MIC50 [1, 2]: ~250 nM (≈ 0.0842 µg/mL) | concentrations at which not toxic, S. cerevisiae cytotoxicity testing (S. cerevisiae): ≥ 100 µM | concentrations at which not toxic, human fibroblast cytotoxicity testing (human fibroblast): ≥ 100 µM

NC(=O)Cc1ccc(Oc2nc3ccc(Cl)cc3s2)cc1 [NZ-505, 2-{4-[(6-chloro-1,3-benzothiazol-2-yl)oxy]phenyl}acetamide]
MIC50 [1, 2]: ~250 nM (≈ 0.0797 µg/mL) | concentrations at which not toxic, S. cerevisiae cytotoxicity testing (S. cerevisiae): ≥ 100 µM | concentrations at which not toxic, human fibroblast cytotoxicity testing (human fibroblast): ≥ 100 µM

CC(C(=O)NCCS(C)(=O)=O)c1ccc(Oc2nc3ccc(Cl)cc3s2)cc1 (stereo not drawn) [NZ-578, 2-{4-[(6-chloro-1,3-benzothiazol-2-yl)oxy]phenyl}-N-(2-methanesulfonylethyl)propanamide]
MIC50 [1, 2]: 18 nM (≈ 0.0079 µg/mL) | inhibition at 31 µM ([1]; HCT-8, @31 uM, read-out: % (inhibition of CP) printed in the MIC50 (nM) (CP) column): 83% | MIC50 ([1]; read-out: MIC50 (nM) (CP)): < 30 nM | IC50 (in vitro): > 100 µM

Source: patent publication US11083717B2, “Compositions and methods for drug sensitization of parasites” (The Texas A&M University System, priority 2015, dated 2021)
